# Entries after “also recorded” stand apart in the source; their conditions may differ. Like-named read-outs stand apart in the source and are kept apart here.
# Tests used:
# [1] = target: T1, gp130 extracellular domain (recombinant gp130-Fc-HA) (Homo sapiens, UniProt P40189); assay: Surface plasmon resonance direct binding to gp130-Fc-HA; conditions: for binding in SPR direct binding assay, comparison in words: relative to MDL-A or to other analogues
# T1 construct: purified gp130 (amino residue 18-615); made in house; host or cells: HEK293T (plasmid from Dr. John J. Krolewski)
# T1 sequence (P40189 18-615): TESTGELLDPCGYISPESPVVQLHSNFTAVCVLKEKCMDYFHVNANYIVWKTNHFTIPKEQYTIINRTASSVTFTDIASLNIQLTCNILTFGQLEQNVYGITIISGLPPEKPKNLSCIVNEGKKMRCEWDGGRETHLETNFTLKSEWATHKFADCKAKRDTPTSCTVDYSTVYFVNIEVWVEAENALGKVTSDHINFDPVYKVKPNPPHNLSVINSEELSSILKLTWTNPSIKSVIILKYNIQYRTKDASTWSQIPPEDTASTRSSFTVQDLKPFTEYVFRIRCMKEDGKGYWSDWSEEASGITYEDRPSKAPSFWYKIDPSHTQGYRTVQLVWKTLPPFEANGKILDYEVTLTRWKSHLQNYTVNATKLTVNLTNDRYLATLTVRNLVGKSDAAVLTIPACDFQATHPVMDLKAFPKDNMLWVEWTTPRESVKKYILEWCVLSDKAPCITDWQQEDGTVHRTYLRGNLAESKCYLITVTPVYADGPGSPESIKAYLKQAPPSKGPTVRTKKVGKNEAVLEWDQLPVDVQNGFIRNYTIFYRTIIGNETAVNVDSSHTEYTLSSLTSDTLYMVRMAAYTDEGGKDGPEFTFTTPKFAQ
# Method: HEK293T cells were grown in media containing DMEM+10% fetal bovine serum (FBS),100 U/ml penicillin and […] streptomycin (Invitrogen) in a humidified 37° C. incubator with 5% CO2. Plasmid DNA expressing gp130-Fc-HA was transfected in the form of calcium phosphate precipitate into HEK293T cells (ten T75 flasks containing 5.5×10^6 cells). The supernatant was harvested sixty hours post transfection and centrifuged to remove residual cells and adjusted to pH 8.0. The supernatant was passed through a 0.45 μm filter. The gp130-Fc-HA tagged protein was immunoprecipitated using anti-HA affinity matrix (Roche Applied Bioscience).A one milliliter column containing anti-HA affinity matrix was equilibrated with 20 mM Tris-HCl, 0.1M NaCl, 0.1 mM EDTA (pH 8.0). The supernatant was applied to the equilibrated column and the column was washed successively with 20 mM Tris-HCl, 1M NaCl (pH 8.0). Bound protein was eluted with HA peptide dissolved in equilibration buffer. The column was regenerated with 0.1 M glycine (pH 2.0). Fractions containing recombinant protein were pooled, dialyzed against HBS buffer [10 mM HEPES (pH 7.4), 0.15 M NaCl, 3 mM EDTA, 0.005% P20] and concentrated by Centricon 30 (Amicon) centrifugation. Protein concentration was determined using Bradford protein assay reagent (Pierce), with bovine serum albumin (BSA, Fisher Scientific) as a standard. The purified recombinant gp130 protein was analyzed using SDS-PAGE and immunoblotting.
# Surface plasmon resonance (SPR) analysis was performed using BIAcore T100. Recombinant gp130-Fc-HA was cross-linked to the flow cell on a carboxymethylated dextran matrix of a CM5 sensor chip (BIAcore) using standard amino group coupling methods according to the manufacturer's instructions. Sodium acetate (10 mM, pH 3.5) gave the best immobilization of the protein on the chip surface and unreactive groups on the chip were blocked by ethanolamine according to the manufacturer's instructions. Approximately 5000 resonance units (RU) of gp130-Fc-HA were cross-linked to the flow cell. HBS+1% DMSO were used in all buffers (running and sample) to avoid background response due to differences in buffer refractive index. For the equilibrium analysis, various concentrations of MDL-A, 1, and 2 were injected for a period of 2 min at a flow rate of 30 μl/min, in series, into flow cells containing covalently bound gp130-fc-HA and reference flow cell. Bound ligand (MDL-A, 1, and 2) in each assay was removed by passing 10 mM glycine (pH 2.2) over the chip surface. Biacore T100 Evaluation 2.0 was used for all interaction analyses. The steady-state equilibrium response (RUeq) was determined from the reference-subtracted sensogram. The kinetics parameter was calculated according to a 1:1 Langmuir binding model (A+B ? AB) by direct fitting of ligand binding sensor grams at multiple concentrations. The dissociation equilibrium constant is defined as dissociation constant (KD)=dissociation rate constant (kd)/association rate constant (ka). KD was determined by scattered analysis of equilibrium-state data obtained at different concentrations of analogues.
# To examine the direct binding and calculation of equilibrium dissociation constant (KD) of MDL-A analogues with gp130 extracellular domain, surface plasmon resonance analysis was done. Protein was covalently cross linked to the dextran matrix of the biosensor chip CM5. Successively, various concentrations of MDL-A and MDL-A analogues were injected into the flow cells containing bound protein and no protein (reference). Interactions were monitored in real time and KD values were calculated by reference-substrated sensogram.
# To examine the direct binding and calculate the equilibrium dissociation constant (KD) of MDL-A analogues with gp130 extracellular domain, surface plasmon resonance analysis was performed. Surface plasmon resonance (SPR) analysis was performed using a BIAcore T100. […]
# [2] = tested on: Stat3 phosphorylation (p-Tyr705) induced by IL-6 in LNCaP prostate cancer cells; assay: IL-6 induced Stat3 phosphorylation in LNCaP cells, Western blot; format: cell-based; conditions: for inhibition of Stat3 phosphorylation induced by IL6: Western blot; for relative potency of inhibition of Stat3 phosphorylation: comparison in words
# Method: LNCaP prostate cancer cells were acquired from American Type Culture Collection. Cells were maintained in RPMI 1640 medium, 1× with 4.5 g/L L-glutamine, supplemented with 10% FBS, 100 U/ml penicillin and […] streptomycin (Invitrogen), in a humidified atmosphere of 5% CO2 at 37° C.
# LNCaP prostate cancer cells were seeded in T75 flasks, grown to 50% confluence and serum-starved the following night. The cells were left untreated or were treated with MDL-A (100-400 μM), 1, 2 (5-40 μM) or DMSO in the absence of FBS. After 4 hours, the cells were stimulated with 12.5 ng/ml IL-6 (Cell Signaling Technology). The cells were then harvested at 30 minutes and washed with PBS and lysed in cold M-PER lysis buffer (Pierce) containing protease inhibitors (Sigma) and phosphatase inhibitors (Roche). Lysates were centrifuged at 14,000 rpm for 15 minutes at 4° C. and supernatants were collected and stored at −20° C. until further use.
# Cell lysates were assayed for their protein concentrations using the Bradford protein assay reagent (Pierce), using BSA (Fisher Scientific) as the standard. Lysate samples were adjusted for the same protein concentration, approximately 5 μg of sample protein was loaded into each of the appropriate lanes. Protein samples were separated by SDS-PAGE and electrotransferred to PVDF membranes. The membranes were washed and blocked with 5% BSA in TBST (60 mM Tris-base, 120 mM NaCl, 0.1% Tween-20) for at least one hour and incubated with anti-phospho-STAT3 (p-Tyr705) antibody, anti-STAT3 antibody or anti-GAPDH antibody (all from Cell Signaling Technology) in 5% BSA in TBST overnight at 4° C. Blots were then washed three times in TBST and incubated with a horseradish peroxidase-conjugated goat anti-rabbit IgG secondary antibody (Cell Signaling Technology) in 5% BSA in TBST for 1 hour at room temperature. The bound antibody was detected using Enhanced Chemiluminescence detection reagents (Pierce) according to the manufacturer's instructions and chemiluminescence visualized using ECL Hyperfilm (Amersham).
# [3] = tested on: nuclear translocation of STAT3 in MCF-7 cells; assay: Immunofluorescence of IL6-activated STAT3 nuclear translocation in MCF-7 cells; format: cell-based
# [4] = tested on: Stat3 phosphorylation (p-Tyr705) induced by IL-6 in LNCaP prostate cancer cells; assay: IL-6 induced Stat3 phosphorylation in LNCaP cells, Western blot; format: cell-based; conditions: IL-6 12.5 ng/ml 30 min
# [5] = tested on: IL6 mediated STAT3 phosphorylation; assay: IL6 induced phosphorylation of STAT3 (FIG. 34); format: cell-based
# [6] = tested on: LIF mediated STAT3 phosphorylation; assay: LIF induced phosphorylation of STAT3 (FIG. 34); format: cell-based
# [7] = tested on: SUM-159 breast cancer cells tumor xenograft; assay: Tumor xenograft model with SUM-159 breast cancer cells; format: in vivo, human; conditions: 100 mg/kg, SUM-159 xenograft, vehicle DMSO
# Text: The effect of a representative compound, MDL-16, on tumor progression is compared to a group treated with vehicle (DMSO).
# [8] = gp130-Fc-HA on CM5 chip, BIAcore T100, read-out: SPR data (Kd μM)
# [9] = gp130 extracellular domain, Biacore evaluation software 2.0, read-out: KD
SMILES,"Kd [1, 8]","Kd [1, 9]","Kd ([1]; values in running text and figure legend, read-out: dissociation constant (KD))","binding in SPR direct binding assay, comparison in words [1]",inhibition of Stat3 phosphorylation induced by IL6 ([2]; IL-6 12.5 ng/ml 30 min),nuclear translocation of STAT3 activated by IL6 [3],relative potency of inhibition of Stat3 phosphorylation [2],inhibition of Stat3 phosphorylation induced by IL-6 at 40 µM [4],"inhibition of Stat3 phosphorylation induced by IL-6 at 40 µM ([2]; 40 μM compound 4 hours, IL-6 12.5 ng/ml 30 min)",IL6 mediated STAT3 phosphorylation [5],LIF mediated STAT3 phosphorylation [6],effect on tumor progression compared to vehicle [7]
CCCCn1nccc1C(=O)CN1c2ccccc2[C@]2(O)CCO[C@H]12 [MDL-3],–,–,–,better binding than MDL-A,–,–,–,–,–,–,–,–
CCCCc1ccc(O)c(Cn2cc(CCO)c3cc(C(=O)OC)ccc32)c1O [MDL-7],40.8 µM,40.8 µM,–,better binding than MDL-A; also recorded: better activity than MDL-A,–,–,slightly more potent than MDL-5,completely inhibit,–,–,–,–
CCCCc1ccc(OC)c(Cn2cc(CCO)c3ccccc32)c1OC [MDL-8],41.4 µM,41.4 µM,–,better binding than MDL-A; also recorded: better activity than MDL-A,–,–,–,–,–,–,–,–
"CCCCc1ccc(O)c(Cn2cc(C[C@H](O)COC(=O)c3ccccc3)c3ccccc32)c1O [MDL-16, (S)-3-(1-(3-Butyl-2,6-Dihydroxybenzyl)-1H-Indol-3Yl)-2-Hydroxypropyl Benzoate]",29 µM,–,29.7 µM,stronger binding than analogues without extra attachments; also recorded: strongest binding affinity; also recorded: better binding than MDL-A; also recorded: better activity than MDL-A,dose dependent inhibition,inhibits the nuclear translocation of STAT3,slightly more potent than MDL-5,–,completely inhibits,inhibits IL6 mediated STAT3 phosphorylation,not LIF mediated STAT3 phosphorylation,significant effect on tumor progress compared to vehicle

# Now from value to compound, other results behind:
"Kd [1, 8]","Kd [1, 9]","Kd ([1]; values in running text and figure legend, read-out: dissociation constant (KD))",SMILES,"binding in SPR direct binding assay, comparison in words [1]",inhibition of Stat3 phosphorylation induced by IL6 ([2]; IL-6 12.5 ng/ml 30 min),nuclear translocation of STAT3 activated by IL6 [3],relative potency of inhibition of Stat3 phosphorylation [2],inhibition of Stat3 phosphorylation induced by IL-6 at 40 µM [4],"inhibition of Stat3 phosphorylation induced by IL-6 at 40 µM ([2]; 40 μM compound 4 hours, IL-6 12.5 ng/ml 30 min)",IL6 mediated STAT3 phosphorylation [5],LIF mediated STAT3 phosphorylation [6],effect on tumor progression compared to vehicle [7]
37 µM,37 µM,–,"CCCCc1ccc(O)c(CN2c3ccccc3[C@]3(O)C[C@H](COC(=O)c4ccccc4)O[C@H]23)c1O (stereo in doubt) [MDL-5, ((2S,3AR)-8-(3-butyl-2,6-Dihydroxybenzyl)-3A-Hydroxy-3,3A,8,8A-Tetrahydro-2H-Furo[2,3-B]Indol-2-Yl)Methyl Benzoate]",stronger binding than analogues without extra attachments; also recorded: better binding than MDL-A; also recorded: better activity than MDL-A,dose dependent inhibition,inhibits the nuclear translocation of STAT3,–,–,–,–,–,–
49.5 µM,49.5 µM,–,CCCCc1ccc(O)c(Cn2cc(CCO)c3ccccc32)c1O [MDL-6],better binding than MDL-A; also recorded: better activity than MDL-A,–,–,slightly more potent than MDL-5,completely inhibit,–,–,–,–
42.5 µM,–,–,CCCCc1ccc(OC)c(CN2c3ccccc3[C@]3(O)C[C@H](COC(=O)c4ccccc4)O[C@H]23)c1OC [MDL-17],stronger binding than analogues without extra attachments; also recorded: better binding than MDL-A; also recorded: better activity than MDL-A,–,–,–,–,–,–,–,–
